How the values were obtained:
axV-mNG = target: T1, axV-mNG (Homo sapiens, UniProt P08758); test: equilibrium binding to liposomes, flow cytometry; conditions: 20:80 PS/PC liposomes, not free lipid; Kd is the protein concentration at half occupation; Hill coefficient ~1.2; HBS pH 7.4 with 2.5 mM CaCl2; 1 h; read-out: Kd (apparent, Hill)
T1 construct: gene ANXA5; N-terminal 6xHis, annexin V with C-terminal mNeonGreen fusion (also printed mNG-axV), tags kept, pET-28a(+), E. coli Rosetta-Gami 2(DE3)pLysS, Ni-NTA
T1 sequence (P08758 2-320): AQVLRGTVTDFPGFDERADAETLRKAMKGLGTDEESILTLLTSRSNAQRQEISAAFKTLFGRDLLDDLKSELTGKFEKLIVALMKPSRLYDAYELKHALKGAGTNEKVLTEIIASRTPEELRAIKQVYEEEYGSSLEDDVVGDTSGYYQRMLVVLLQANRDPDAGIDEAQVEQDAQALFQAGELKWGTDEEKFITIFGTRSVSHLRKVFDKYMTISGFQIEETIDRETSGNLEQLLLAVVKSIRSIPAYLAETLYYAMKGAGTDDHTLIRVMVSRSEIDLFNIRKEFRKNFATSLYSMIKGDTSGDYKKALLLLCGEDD

mNG-lactC2 = target: T2, mNG-lactC2 (Bos taurus, UniProt Q95114); test: equilibrium binding to liposomes, flow cytometry; conditions: 20:80 PS/PC liposomes, not free lipid; Kd is the protein concentration at half occupation; Hill coefficient ~1.2; HBS pH 7.4, no calcium; 1 h; read-out: Kd (apparent, Hill)
T2 construct: gene MFGE8; C2 domain (residues 270-427), N-terminal 6xHis and mNeonGreen fusion kept, pET-28a(+), E. coli Rosetta-Gami 2(DE3)pLysS, Ni-NTA
T2 sequence (Q95114 270-427): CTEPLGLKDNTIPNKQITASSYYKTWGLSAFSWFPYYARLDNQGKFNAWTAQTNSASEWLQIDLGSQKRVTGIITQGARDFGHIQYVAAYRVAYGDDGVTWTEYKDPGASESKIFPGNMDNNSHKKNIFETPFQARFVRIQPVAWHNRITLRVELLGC

Substance: 1,2-diacyl-sn-glycero-3-phospho-L-serine [phosphatidylserine]
- Kd (axV-mNG): 10 nM
- Kd (mNG-lactC2): 107 nM
